Test results reported in PMC2908295 (Journal of medicinal chemistry, 2010).
Square brackets hold non-standard residues; d marks the D form. Peptide text beside a SMILES is read from it. * marks the point of attachment. X1 = C[C@@H](CCC[N+](C)(C)C)C(=O)*; Tle = CC(C)(C)[C@H](N)C(=O)O

What was measured:
male Sprague-Dawley rats [1] = experiment: Hotplate model; format: in vivo, rat
male Sprague-Dawley rats [2] = experiment: Acetic acid writhing model; format: in vivo; conditions: rat, i.v., 3% acetic acid i.p. 20 min after drug, n = 3 for all doses
rats = experiment: Chung model for neuropathic pain; format: in vivo; conditions: rat, single dose of 10 mg/kg i.p., n = 5
male Sprague-Dawley rats [3] = experiment: Hypothermia assay; format: in vivo; conditions: rat
PK analysis by LC/MS = format: in vivo; conditions: rat, iv, 1 mg/kg
[4] = PK analysis by NTR-1 binding activity in plasma; format: in vivo; conditions: rat, i.v., NTR-1 radiolabel competition assay
[5] = rat hotplate, morphine 5 mg/kg i.p., n ≥ 6

Row | SMILES | maximum response latency (male Sprague-Dawley rats [1]; rat hotplate, comparison with hydrolysis products, cut-off 30 s) [s] | EC50 hotplate, i.m. (male Sprague-Dawley rats [1]; rat, i.m., assessed after 60 min, n = 3 for all doses) [mg/kg] | EC50 hotplate, i.p. (male Sprague-Dawley rats [1]; rat, i.p., assessed after 60 min, n = 3 for all doses) [mg/kg] | EC50 hotplate, i.v. (male Sprague-Dawley rats [1]; rat, i.v., assessed after 60 min, n = 3 for all doses) [mg/kg] | EC50 hotplate, s.c. (male Sprague-Dawley rats [1]; rat, s.c., assessed after 60 min, n = 3 for all doses) [mg/kg] | EC50 acetic acid writhing (male Sprague-Dawley rats [2]) [mg/kg] | duration of maximal response, Chung model (rats) | duration of drop in core body temperature (male Sprague-Dawley rats [3]; 10 mg/kg i.v., n ≥ 4) [h] | EC50 hypothermia (area under the PD curves) (male Sprague-Dawley rats [3]; i.v., rectal temperature every 15 min for 4 h, n = 3 for all doses) [mg/kg] | Tmax (PK analysis by LC/MS; in vivo) [min] | half-life (PK analysis by LC/MS; plasma) [min] | time until plasma NTR-1 binding returned to level of non-treated animals [4] [min] | maximal response (% of MPE), morphine benchmark (male Sprague-Dawley rats [1]; [5]) [%] | time of return of response to baseline (male Sprague-Dawley rats [1]; [5]) [min] | time to reach 100% MPE (male Sprague-Dawley rats [1]; [5]) [min]
1 | CC(C)C[C@H](NC(=O)[C@@H](NC(=O)[C@H](Cc1ccc(O)cc1)NC(=O)[C@@H]1CCCN1C(=O)[C@H](CCCNC(=N)N)NC(=O)[C@@H](C)CCC[N+](C)(C)C)C(C)(C)C)C(=O)O [Compound 1] (X1-RPY[Tle]L-OH; N-terminus assumed) | 30 | 2.45 | 2.00 | 2.64 | 3.84 | 0.16 | maintained for over one hour | > 4 | 0.78 | ≤ 5 | 26.3 | 60 | – | – | –
2 | CN1CC[C@]23c4c5ccc(O)c4O[C@H]2[C@@H](O)C=C[C@H]3[C@H]1C5 [morphine, reference compound] | – | – | – | – | – | – | – | – | – | – | – | – | 100 | ≤ 200 | 15 to 30
